US20230203023A1, “SALT AND CRYSTAL FORMS OF GLP-1R AGONISTS AND USES THEREOF” (QILU REGOR THERAPEUTICS INC., priority 2020, published 2023)
In brackets after ≈: the same amount, converted by molar mass. Read-outs that look alike come from different tables or passages of the source.

Columns and labels:
[1] = Kinetic solubility test in water and bio-relevant media (SGF, FaSSIF, FeSSIF); type: physicochemical; details: for solubility at 1 h: 37 °C, thermodynamic from solid, read-out: S: solubility; for solubility at 1 h / S: solubility: 37° C.; for Purity (%), area percentage of API: for reference only (suspensions); for FC: form change: residual solids by XRPD; for pH: supernatant
Experimental: (§1) Weigh 100 mg of sodium chloride and 50 mg of Triton X-100 into a 50-mL volumetric flask. Add appropriate volume of purified water and sonicate until all solids are completely dissolved. Add about 68 μL of 12 M HCl and sufficient purified water closely to the target volume and adjust to pH 1.8. Dilute to volume with purified water, mix well and check the pH with a pH meter.
as §1, with “170” for “100”, “phosphate monobasic, 21” for “chloride and 50”, “sodium hydroxide and 310 mg of sodium chloride, 110 mg of SIF powder” for “Triton X-100”, “Add” for “Add about 68 μL of 12 M HCl and”, “6.5.” for “1.8.”
Weigh 0.41 mL of glacial acetic acid, 202 mg of sodium hydroxide and 594 mg of sodium chloride, 560 mg of SIF powder into a 50-mL volumetric flask. Add appropriate volume of purified water to dissolve the solids. Then add sufficient purified water closely to the target volume and adjust to pH 5.0. Dilute to volume with purified water, mix well and check the pH with a pH meter.
Kinetic solubility was evaluated in water and three bio-relevant media (SGF, FaSSIF and FeSSIF) for 1/4/24 hours. 3-4 mg of solids were suspended in 3 mL each medium (solid loading: 1 mg/mL, calculated using freeform) to get a suspension, followed by rolling (25 rpm) at 37° C. for 1/4/24 hours. At each time point, ˜1.0 mL of suspension was sampled out for centrifugation (12000 rpm, 2 min) and filtration through 0.45 μm PTFE membrane to obtain supernatant for HPLC and pH tests, the residual solids were analyzed by XRPD.
Kinetic solubility was evaluated for 1:1 Compound II Citrate Salt (Form A), 1:1 Compound II Tris Salt (Form B), and freeform of Compound II in water and three bio-relevant media (SGF, FaSSIF and FeSSIF) for 1/4/24 hours. 3-4 mg of solids were suspended in 3 mL each medium (solid loading:
1 mg/mL, calculated using freeform) to get a suspension, followed by rolling (25 rpm) at 37° C. for 1/4/24 hours. At each time point, ˜1.0 mL of suspension was sampled out for centrifugation (12000 rpm, 2 min) and filtration through 0.45 μm PTFE membrane to obtain supernatant for HPLC and pH tests, the residual solids were analyzed by XRPD. […] The purity results were for reference only since the samples were all suspensions.

[2] = Solid stability evaluation (I/II), XRPD and HPLC; type: physicochemical; details: for Purity (area %): listed as Amorphous Free form
Experimental: To evaluate the physical and chemical stability of 1:1 Compound I Tris Salt (Form A) and amorphous free form, samples were stored under the conditions of 60° C. for 1 day and 25° C./60% RH or 40° C./75% RH for 1 week, respectively.
To evaluate the physical and chemical stability of 1:1 Compound II Citrate Salt (Form A), 1:1 Compound II Tris Salt (Form B) and freeform, samples were stored under the conditions of 60° C. for 1 day and 25° C./60% RH or 40° C./75% RH for 1 week, respectively.

[3] = FaSSIF, 4 hours, listed as Free form amorphous
[4] = FaSSIF, 24 hours, listed as Free form amorphous
[5] = FeSSIF, 1 hour, listed as Free form amorphous
[6] = FeSSIF, 4 hours, listed as Free form amorphous
[7] = FeSSIF, 24 hours, listed as Free form amorphous
[8] = H2O, 1 hour, listed as Free form amorphous
[9] = H2O, 4 hours, listed as Free form amorphous
[10] = H2O, 24 hours, listed as Free form amorphous
[11] = SGF, 1 hour, listed as Free form amorphous
[12] = SGF, 4 hours, listed as Free form amorphous
[13] = SGF, 24 hours, listed as Free form amorphous

Structure (SMILES): O=C(O)c1ccc2nc(CN3CC=C(c4cccc(OCc5ccc(Cl)cc5F)c4)CC3)n(C[C@@H]3CCO3)c2c1 [Compound I, (S)-2-((4-(3-((4-chloro-2-fluorobenzyl)-oxy)phenyl)-3,6-dihydropyridin-1(2H)-yl)methyl)-1-(oxetan-2-ylmethyl)-1H-benzo[d]-imidazole-6-carboxylic acid]
- solubility at 1 h ([1]; FaSSIF, pH 6.5, fassif, FaSSIF, 1 hour): 200 µg/mL (≈ 356 µM)
- Purity (%), area percentage of API ([1]; FaSSIF, 1 hour, listed as Free form amorphous): 93.54%
- S: solubility [1, 3]: 0.08 mg/mL
- Purity (%), area percentage of API ([1]; FaSSIF, 4 hours): 49.59%
- S: solubility [1, 4]: 0.04 mg/mL
- Purity (%), area percentage of API [1, 4]: 63.24%
- solubility at 1 h ([1]; FeSSIF, pH 5, fessif, FeSSIF, 1 hour): 400 µg/mL (≈ 712 µM)
- Purity (%), area percentage of API [1, 5]: 94.78%
- S: solubility [1, 6]: 0.5 mg/mL
- Purity (%), area percentage of API [1, 6]: 91.80%
- S: solubility [1, 7]: 0.4 mg/mL
- Purity (%), area percentage of API [1, 7]: 77.57%
- S: solubility [1, 8]: 0.03 mg/mL
- Purity (%), area percentage of API [1, 8]: 100.00%
- S: solubility [1, 9]: 0.02 mg/mL
- Purity (%), area percentage of API [1, 9]: 87.13%
- S: solubility [1, 10]: <LOQ
- Purity (%), area percentage of API [1, 10]: 9.97%
- S: solubility ([1]; SGF, 1 hour): 0.4 mg/mL
- Purity (%), area percentage of API [1, 11]: 93.07%
- S: solubility [1, 12]: 0.6 mg/mL
- Purity (%), area percentage of API [1, 12]: 94.02%
- S: solubility [1, 13]: 0.8 mg/mL
- Purity (%), area percentage of API [1, 13]: 91.48%
- FC: form change ([1]; FaSSIF, 1 hour): No
- FC: form change ([1]; FaSSIF, 4 hours): No
- FC: form change [1, 4]: Yes
- FC: form change ([1]; FeSSIF, 1 hour): No
- FC: form change ([1]; FeSSIF, 4 hours): No
- FC: form change ([1]; FeSSIF, 24 hours): No
- FC: form change ([1]; H2O, 1 hour): No
- FC: form change ([1]; H2O, 4 hours): No
- FC: form change ([1]; H2O, 24 hours): No
- FC: form change [1, 11]: No
- FC: form change [1, 12]: No
- FC: form change [1, 13]: No
- pH ([1]; FaSSIF, 1 hour): 6.5
- pH [1, 3]: 6.5
- pH [1, 4]: 6.4
- pH [1, 5]: 5.0
- pH ([1]; FeSSIF, 4 hours): 5.0
- pH ([1]; FeSSIF, 24 hours): 5.0
- pH [1, 8]: 8.4
- pH [1, 9]: 7.3
- pH [1, 10]: 6.8
- pH [1, 12]: 1.9
- Form change ([2]; 25° C./60% RH (open), 1 week): No
- Observation ([2]; 25° C./60% RH (open), 1 week): Yellowish
- Purity (area %) ([2]; 25° C./60% RH (open), 1 week): 93.06 area %
- Purity (area %) ([2]; 40° C./75% RH (open), 1 week): 89.59 area %
- Form change ([2]; 60° C. (capped), 1 day): No
- Observation ([2]; 60° C. (capped), 1 day): Yellowish
- Purity (area %) ([2]; 60° C. (capped), 1 day): 86.88 area %
- Form change ([2]; Initial): No
- Observation ([2]; Initial): White powder
- Purity (area %) ([2]; Initial): 94.71 area %
